Biological target: T1, recombinant human PLK1[2-369]T210D (Homo sapiens, UniProt P53350, T210D)
T1 construct: recombinant human PLK1[2-369]T210D; Smt (SUMO) fusion partner (N, cleaved yes); host or cells: E. coli
Assay: PLK1 DELFIA Kinase Assay
Type: biochemical
Conditions: 50 μM ATP, 2 μM peptide substrate, 0.3 nM enzyme, 90 minutes at room temperature
Method in brief: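 E. coli-expressed human PLK1, cleaved from an Smt fusion after Ni2+ purification, is reacted with or without inhibitor for 90 minutes at room temperature and stopped with EDTA. Product is captured on Neutravidin plates and quantified by europium DELFIA time-resolved fluorescence.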

T1 sequence (P53350 2-369 T210D): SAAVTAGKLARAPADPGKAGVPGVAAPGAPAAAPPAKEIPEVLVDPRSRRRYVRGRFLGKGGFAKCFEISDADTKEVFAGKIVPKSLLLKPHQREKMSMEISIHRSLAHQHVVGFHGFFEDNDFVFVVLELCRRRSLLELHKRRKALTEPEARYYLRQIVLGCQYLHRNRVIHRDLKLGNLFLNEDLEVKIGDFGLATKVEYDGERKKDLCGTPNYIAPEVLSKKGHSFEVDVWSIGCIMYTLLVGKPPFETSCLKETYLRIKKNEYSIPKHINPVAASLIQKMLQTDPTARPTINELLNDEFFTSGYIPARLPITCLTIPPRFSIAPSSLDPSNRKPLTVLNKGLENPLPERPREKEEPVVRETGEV

SMILES	IC50 [nM]
Cc1nc(NC2CCN(C)CC2)ccc1Nc1ncc2c(n1)-c1ccc(C(F)(F)F)cc1NC(=S)C2 [Compound I-92, 2-({2-methyl-6-[(1-methylpiperidin-4-yl)amino]pyridin-3-yl}amino)-9-(trifluoromethyl)-5,7-dihydro-6H-pyrimido[5,4-d][1]benzazepine-6-thione]	< 5
Cc1ncccc1Nc1ncc2c(n1)-c1cc(CCCN(C)C)c(Cl)cc1NC(=S)C2 [Compound I-93, 9-chloro-10-[3-(dimethylamino)propyl]-2-[(2-methylpyridin-3-yl)amino]-5,7-dihydro-6H-pyrimido[5,4-d][1]benzazepine-6-thione]	5 to 25
Cc1ncc(Nc2ncc3c(n2)-c2ccc(Cl)cc2NC(=S)C3)cc1CCCN(C)C [Compound I-94, 9-chloro-2-({5-[3-(dimethylamino)propyl]-6-methylpyridin-3-yl}amino)-5,7-dihydro-6H-pyrimido[5,4-d][1]benzazepine-6-thione]	< 5
Cc1nc(N(C)C2CCN(C)C2)ccc1Nc1ncc2c(n1)-c1ccc(C(F)(F)F)cc1NC(=S)C2 (stereo not drawn) [Compound I-95, 2-({2-methyl-6-[methy(1-methylpyrrolidin-3-yl)amino]pyridin-3-yl}amino)-9-(trifluoromethyl)-5,7-dihydro-6H-pyrimido[5,4-d][1]benzazepine-6-thione]	< 5
Cc1nc2c(cc1Nc1ncc3c(n1)-c1ccc(Cl)cc1NC(=S)C3)CC(N(C)C)CC2 (stereo not drawn) [Compound I-96, 9-chloro-2-{[6-(dimethylamino)-2-methyl-5,6,7,8-tetrahydroquinolin-3-yl]amino}-5,7-dihydro-6H-pyrimido[5,4-d][1]benzazepine-6-thione]	< 5
Cc1nc(NCCN(C)C)ccc1Nc1ncc2c(n1)-c1ccc(Cl)cc1NC(=S)C2 [Compound I-97, 9-chloro-2-[(6-{[2-(dimethylamino)-ethyl]amino}2-methylpyridin-3-yl)amino]-5,7-dihydro-6H-pyrimido[5,4-d][1]benzazepine-6-thione]	5 to 25
Cc1nc(N2CCOCC2)ccc1Nc1ncc2c(n1)-c1ccc(C(F)(F)F)cc1NC(=S)C2 [Compound I-100, 2-[(2-methyl-6-morpholin-4-ylpyridin-3-yl)amino]-9-(trifluoromethyl)-5,7-dihydro-6H-pyrimido[5,4-d][1]benzazepine-6-thione]	< 5
CC(C)(C)C(=O)Nc1ccc(Nc2ncc3c(n2)-c2ccc(Cl)cc2NC(=S)C3)cn1 [Compound I-102, N-{5-[(9-chloro-6-thioxo-6,7-dihydro-5H-pyrimido[5,4-d][1]benzazepin-2-yl)amino]pyridin-2-yl}-2,2-dimethylpropanamide]	5 to 25

Second part, the compound after the results:

IC50 [nM]	SMILES
< 5	Cc1ncc(CCCN)cc1Nc1ncc2c(n1)-c1ccc(C(F)(F)F)cc1NC(=S)C2 [Compound I-90, 2-{[5-(3-aminopropyl)-2-methylpyridin-3-yl]amino}-9-(trifluoromethyl)-5,7-dihydro-6H-pyrimido[5,4-d][1]benzazepine-6-thione]
> 25	Cc1ccnc(C)c1Nc1ncc2c(n1)-c1ccc(C(F)(F)F)cc1NC(=S)C2 [Compound I-98, 2-[(2,4-dimethylpyridin-3-yl)amino]-9-(trifluoromethyl)-5,7-dihydro-6H-pyrimido[5,4-d][1]benzazepine-6-thione]
< 5	Cc1ncc(CCN(C)C)cc1Nc1ncc2c(n1)-c1ccc(Cl)cc1NC(=S)C2 [Compound I-99, 9-chloro-2-({5-[2-(dimethylamino)-ethyl]-2-methylpyridin-3-yl}amino)-5,7-dihydro-6H-pyrimido[5,4-d][1]benzazepine-6-thione]
5 to 25	Cc1nc(CCCN(C)C)ccc1Nc1ncc2c(n1)-c1ccc(C(F)(F)F)cc1NC(=S)C2 [Compound I-101, 2-({6-[3-(dimethylamino)propyl]-2-methylpyridin-3-yl}amino)-9-(trifluoromethyl)-5,7-dihydro-6H-pyrimido[5,4-d][1]benzazepine-6-thione]
